# Measurements: patent publication US20230210984A1, “ADOPTIVE IMMUNOTHERAPY” (The Council of the Queensland Institute of Medical Research, priority 2019, published 2023)
# Key:
# SNU719 cells = assay: Xcellegence growth curve (Example 2); format: cell-based; details: dual combination with EBV-specific T cells vs individual treatment
# Protocol: P-values were calculated using one-way ANOVA: *p<0.05, **p<0.01, ***p<0.001 and ****p<0.0001.
# We treated SNU719 cells (gastric cancer cells) with MEK1/2 inhibitor (AZD6244 (or selumetanib) and trematinib) at concentration of 0.5 μM and 1.0 μM respectively, as individual treatment or in combination with EBV-specific T cells (25:1) as effector to target ratio.
# [1] = test system: SNU719 derived xenograft tumour; assay: SNU719 xenograft, selumatinib and TIG-001 in vivo; design: species or system NRG mice
# Protocol: FIG. 19: Assessment of therapeutic efficacy of dual combination of selumatinib and allogeneic EBV-specific cytotoxic T cells in vivo. (A) The impact of the dual combination of selumatinib and allogeneic T cells (TIG-001) on the outgrowth of EBV-positive SNU719 xenografts in NRG mice was assessed. Tumour-bearing mice were treated with two doses of HLA-matched T cells (2×10^7 T cells per dose per mouse indicated by black arrow) and selumatinib (12.5 mg/Kg) orally for continuous 14 days, either individually or in combination. The growth of each xenograft is represented as the mean tumour area±SD from n=9 mice/group. (B) Gross morphology of the tumours isolated from the mice of indicated treatment groups. (C) Representation of tumour weight described in (B) from the mice of indicated treatment groups. The data are represented as the mean±SD from n=3 mice per group. P-values were calculated using one-way ANOVA. (D) Representation of viable percentage of tumour infiltrates observed across individually treated allogeneic T cells (TIG-001) and in combination with selumatinib as determined by CD45, CD3 and CD8 expression using flow cytometry. P-values were calculated using Student T test. (E) Kaplan-Meier overall survival analysis of the mice bearing EBV-associated tumours as described in (A) following individual and combination treatment of selumatinib and allogeneic T cells. The animals' survival (n=6 mice/group) was monitored over the indicated period of time and statistical significance was analysed by log-rank test: ns=not significant, *p<0.05, **p<0.01, ***p<0.001 and ****p<0.0001.
# In next set of experiments, we wanted to investigate the effect of the above described small molecules in combination of HLA matched allogeneic EBV-specific T cells in vivo. We used the combination of selumatinib and HLA-matched T cell product (TIG-001) to treat SNU719 derived xenograft tumour model in female NRG mice. Once the xenograft reached the size of ˜25 mm^2, we treated the mice with two infusion of TIG-001 (2×10^7 cells per infusion) individually and in combination with daily dosage selumatinib (12.5 mg/kg), administered orally for 14 days. […] Next, we phenotyped the infiltration of the human origin lymphocytes in these tumours using flow cytometry.
structure (smiles),measurement,setting,value
Cn1cnc2c(F)c(Nc3ccc(Br)cc3Cl)c(C(=O)NOCCO)cc21 [selumetanib],rate of cell death (Xcellegence),SNU719 cells,faster cell death
same,number of viable CD45+CD3+CD8+ cells in tumours,[1]; combination with TIG-001 vs individually treated T cell group,significantly more
same,survival rate,[1]; dual combination with TIG-001 vs individual treatment group,better survival rate
same,size of the tumours,"[1]; dual combination with TIG-001 vs individual treatment, when control reached 150 mm^2",significantly smaller
same,tumour progression,[1]; selumatinib 12.5 mg/kg orally 14 days plus two infusions of TIG-001 (2×10^7 cells) vs individual treatment,significant reduction
